In patent publication US7892826B2, “Human cell clones having an endogeneous urotensin II receptor” (Janssen Pharmaceutica N.V., priority 2005, dated 2011):
Bridge positions count the residues as written; N and C are the ends. Square brackets hold non-standard residues; d marks the D form. Peptide text beside a SMILES is read from it. Pen = CC(C)(S)[C@H](N)C(=O)O; Orn = NCCC[C@H](N)C(=O)O

How the values were obtained:
[1] = target: T1, endogeneous urotensin II receptor (UT receptor) in 6D9 cells (Homo sapiens, UniProt Q9UKP6); assay: Calcium mobilization assay (FLIPR, Calcium 3 dye) in 6D9 cells; type: cell-based; conditions: 10 nM or 30 nM U-II (FIG. 6)
T1 construct: endogenous in cells; host or cells: 6D9 (ATCC PTA-7749), sub-clone of human rhabdomyosarcoma line SJRH30 (ATCC CRL-2061)
T1 sequence (Q9UKP6 1-389): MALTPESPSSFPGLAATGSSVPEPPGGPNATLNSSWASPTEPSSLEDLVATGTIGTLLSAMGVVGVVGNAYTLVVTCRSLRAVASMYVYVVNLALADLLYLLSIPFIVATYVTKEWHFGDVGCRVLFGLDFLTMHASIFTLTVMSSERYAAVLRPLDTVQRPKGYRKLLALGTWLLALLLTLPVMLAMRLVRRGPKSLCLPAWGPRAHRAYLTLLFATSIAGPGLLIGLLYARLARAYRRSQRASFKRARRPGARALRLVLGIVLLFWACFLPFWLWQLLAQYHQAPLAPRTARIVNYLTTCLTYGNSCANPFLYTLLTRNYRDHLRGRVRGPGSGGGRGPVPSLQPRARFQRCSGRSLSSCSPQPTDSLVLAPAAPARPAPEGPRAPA
Method: Calcium mobilization was performed using FLIPR and Calcium 3, a non-wash Ca^2+ dye. Unlike the conventional Ca^2+ dye such as Fluo-3, Fluo-4, and Fura-2/AM, etc., the non-wash Ca^2+ dye was formulated to incorporate extracellular fluorescence quenchers and avoid the need to wash away extracellular Ca^2+ dye after loading the cells with the dye (Monteith and Bird, 2005, supra).
Cells were plated into 96 or 384 well plates and were incubated at 37° C. After the incubation, the growth medium was removed and replaced with HBSS (Hanks Balanced salt solution #21-023-CV, Mediatech, Inc, Herndon, Va.) containing Calcium 3 dye with probenecid.
In addition, the cells survived in cultures for over 3 months (17 passages) and were still responsive to U-II (FIG. 4).

[2] = target: T1, endogeneous urotensin II receptor (UT receptor) in 6D9 cells; assay: 384-well FLIPR high throughput calcium mobilization assay in 6D9 cells; type: cell-based; conditions: 384-format
Method: Calcium mobilization was performed using FLIPR and Calcium 3, a non-wash Ca^2+ dye. Unlike the conventional Ca^2+ dye such as Fluo-3, Fluo-4, and Fura-2/AM, etc., the non-wash Ca^2+ dye was formulated to incorporate extracellular fluorescence quenchers and avoid the need to wash away extracellular Ca^2+ dye after loading the cells with the dye (Monteith and Bird, 2005, supra). Cells were plated into 96 or 384 well plates and were incubated at 37° C. After the incubation, the growth medium was removed and replaced with HBSS (Hanks Balanced salt solution #21-023-CV, Mediatech, Inc, Herndon, Va.) containing Calcium 3 dye with probenecid. […] This Example teaches a high throughput approach using FLIPR on a 384-well format. […] Various factors of the FLIPR assay had been tested to minimize the measure variability.

| Compound | Block of calcium mobilization coupled to U-II stimulation [1] | Dose dependence of response in HTS calcium mobilization assay [2] |
| --- | --- | --- |
| CC(C)[C@H](NC(=O)[C@@H]1CSSC(C)(C)[C@H](NC(=O)[C@@H](N)CC(=O)O)C(=O)N[C@@H](Cc2ccccc2)C(=O)N[C@H](Cc2c[nH]c3ccccc23)C(=O)N[C@@H](CCCN)C(=O)N[C@@H](Cc2ccc(O)cc2)C(=O)N1)C(=O)O [Urantide] (H-D[Pen]F[dW][Orn]YCV-OH; disulfide 2-7) | blocked the calcium mobilization coupled to U-II stimulation | dose dependent responses |
| CC(C)[C@H](NC(=O)[C@@H]1CSSC[C@H](NC(=O)[C@H](CC(=O)O)NC(=O)[C@@H]2CCCN2C(=O)[C@@H](NC(=O)[C@@H](N)CCC(=O)O)[C@@H](C)O)C(=O)N[C@@H](Cc2ccccc2)C(=O)N[C@@H](Cc2c[nH]c3ccccc23)C(=O)N[C@@H](CCCCN)C(=O)N[C@@H](Cc2ccc(O)cc2)C(=O)N1)C(=O)O [hU-II, SEQ ID NO: 2, ETPDCFWKYCV] | – | dose dependent responses |
